{"source": "ChEMBL document CHEMBL5465560", "about": "“Selectivity Literature for EUbOPEN Chemogenomic Library” (2024)", "key": {"[1]": {"biological_target": "Tyrosine-protein kinase Fyn (Homo sapiens) (UniProt P06241)", "sequence (P06241 2-537 limits assumed)": "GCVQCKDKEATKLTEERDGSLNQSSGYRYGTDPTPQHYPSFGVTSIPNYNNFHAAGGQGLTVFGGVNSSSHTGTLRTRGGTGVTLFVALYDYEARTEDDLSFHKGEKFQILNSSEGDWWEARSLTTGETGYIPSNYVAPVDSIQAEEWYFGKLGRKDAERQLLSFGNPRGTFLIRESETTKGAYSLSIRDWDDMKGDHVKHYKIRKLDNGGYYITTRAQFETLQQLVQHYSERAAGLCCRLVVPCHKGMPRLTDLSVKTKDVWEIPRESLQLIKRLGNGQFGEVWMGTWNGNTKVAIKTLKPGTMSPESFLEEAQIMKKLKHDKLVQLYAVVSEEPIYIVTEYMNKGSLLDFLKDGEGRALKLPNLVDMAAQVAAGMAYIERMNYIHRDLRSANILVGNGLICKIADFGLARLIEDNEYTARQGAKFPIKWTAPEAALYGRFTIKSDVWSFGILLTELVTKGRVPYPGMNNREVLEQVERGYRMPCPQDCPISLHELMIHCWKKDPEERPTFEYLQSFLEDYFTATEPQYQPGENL", "experiment": "Selectivity interaction (Kinase panel (Invitrogen)) EUB0000639a FYN", "conditions": "at 200 nM"}, "[2]": {"biological_target": "Tyrosine-protein kinase Lyn (Homo sapiens, UniProt P07948)", "sequence (P07948 whole entry)": "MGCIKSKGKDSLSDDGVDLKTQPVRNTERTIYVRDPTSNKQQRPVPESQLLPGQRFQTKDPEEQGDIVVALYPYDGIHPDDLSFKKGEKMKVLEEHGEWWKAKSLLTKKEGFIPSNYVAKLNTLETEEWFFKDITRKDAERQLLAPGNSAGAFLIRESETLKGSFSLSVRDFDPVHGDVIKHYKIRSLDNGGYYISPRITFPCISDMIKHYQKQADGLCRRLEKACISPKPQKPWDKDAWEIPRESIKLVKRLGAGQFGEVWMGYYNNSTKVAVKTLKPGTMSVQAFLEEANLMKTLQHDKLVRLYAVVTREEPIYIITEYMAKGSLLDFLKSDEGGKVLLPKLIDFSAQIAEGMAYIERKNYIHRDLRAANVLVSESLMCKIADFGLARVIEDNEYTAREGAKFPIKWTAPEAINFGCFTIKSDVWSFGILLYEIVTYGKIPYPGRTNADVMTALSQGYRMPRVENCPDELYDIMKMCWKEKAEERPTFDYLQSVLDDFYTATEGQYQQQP"}, "[3]": {"biological_target": "T1, Tyrosine-protein kinase JAK3 (Homo sapiens) (UniProt P52333)", "T1 sequence (whole entry)": "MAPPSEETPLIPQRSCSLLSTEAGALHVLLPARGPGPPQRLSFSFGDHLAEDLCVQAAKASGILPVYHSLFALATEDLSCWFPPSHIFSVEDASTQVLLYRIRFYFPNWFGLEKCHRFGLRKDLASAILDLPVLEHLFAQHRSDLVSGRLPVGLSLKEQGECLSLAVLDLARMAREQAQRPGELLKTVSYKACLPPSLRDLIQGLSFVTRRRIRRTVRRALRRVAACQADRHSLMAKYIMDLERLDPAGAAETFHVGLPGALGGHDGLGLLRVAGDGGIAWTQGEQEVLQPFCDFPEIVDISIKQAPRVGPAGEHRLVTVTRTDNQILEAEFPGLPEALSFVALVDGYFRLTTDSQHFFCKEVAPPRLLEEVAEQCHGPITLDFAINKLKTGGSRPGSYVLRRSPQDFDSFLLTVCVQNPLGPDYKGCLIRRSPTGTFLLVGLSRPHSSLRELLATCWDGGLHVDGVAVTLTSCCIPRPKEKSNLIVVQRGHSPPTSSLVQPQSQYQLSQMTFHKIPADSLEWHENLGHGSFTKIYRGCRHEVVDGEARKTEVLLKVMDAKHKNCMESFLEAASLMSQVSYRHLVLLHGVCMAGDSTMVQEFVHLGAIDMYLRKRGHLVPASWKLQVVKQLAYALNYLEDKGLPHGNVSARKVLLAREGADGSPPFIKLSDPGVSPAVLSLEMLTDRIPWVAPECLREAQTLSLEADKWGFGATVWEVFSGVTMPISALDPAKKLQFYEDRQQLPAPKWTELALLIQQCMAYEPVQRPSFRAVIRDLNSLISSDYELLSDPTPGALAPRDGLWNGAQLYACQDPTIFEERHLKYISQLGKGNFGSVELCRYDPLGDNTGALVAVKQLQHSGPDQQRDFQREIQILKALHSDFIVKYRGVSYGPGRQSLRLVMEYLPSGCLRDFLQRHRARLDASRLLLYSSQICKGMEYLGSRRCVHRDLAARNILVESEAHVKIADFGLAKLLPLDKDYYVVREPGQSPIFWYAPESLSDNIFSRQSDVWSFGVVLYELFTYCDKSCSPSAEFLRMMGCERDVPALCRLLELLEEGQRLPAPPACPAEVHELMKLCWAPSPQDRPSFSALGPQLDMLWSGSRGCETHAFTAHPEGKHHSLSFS", "experiment": "Selectivity interaction (KinomeScan (DiscoverX)) EUB0000695a JAK3", "conditions": "at 100 nM"}, "[4]": {"biological_target": "Homeodomain-interacting protein kinase 2 (Homo sapiens, UniProt Q9H2X6)", "sequence (Q9H2X6 whole entry, looked up)": "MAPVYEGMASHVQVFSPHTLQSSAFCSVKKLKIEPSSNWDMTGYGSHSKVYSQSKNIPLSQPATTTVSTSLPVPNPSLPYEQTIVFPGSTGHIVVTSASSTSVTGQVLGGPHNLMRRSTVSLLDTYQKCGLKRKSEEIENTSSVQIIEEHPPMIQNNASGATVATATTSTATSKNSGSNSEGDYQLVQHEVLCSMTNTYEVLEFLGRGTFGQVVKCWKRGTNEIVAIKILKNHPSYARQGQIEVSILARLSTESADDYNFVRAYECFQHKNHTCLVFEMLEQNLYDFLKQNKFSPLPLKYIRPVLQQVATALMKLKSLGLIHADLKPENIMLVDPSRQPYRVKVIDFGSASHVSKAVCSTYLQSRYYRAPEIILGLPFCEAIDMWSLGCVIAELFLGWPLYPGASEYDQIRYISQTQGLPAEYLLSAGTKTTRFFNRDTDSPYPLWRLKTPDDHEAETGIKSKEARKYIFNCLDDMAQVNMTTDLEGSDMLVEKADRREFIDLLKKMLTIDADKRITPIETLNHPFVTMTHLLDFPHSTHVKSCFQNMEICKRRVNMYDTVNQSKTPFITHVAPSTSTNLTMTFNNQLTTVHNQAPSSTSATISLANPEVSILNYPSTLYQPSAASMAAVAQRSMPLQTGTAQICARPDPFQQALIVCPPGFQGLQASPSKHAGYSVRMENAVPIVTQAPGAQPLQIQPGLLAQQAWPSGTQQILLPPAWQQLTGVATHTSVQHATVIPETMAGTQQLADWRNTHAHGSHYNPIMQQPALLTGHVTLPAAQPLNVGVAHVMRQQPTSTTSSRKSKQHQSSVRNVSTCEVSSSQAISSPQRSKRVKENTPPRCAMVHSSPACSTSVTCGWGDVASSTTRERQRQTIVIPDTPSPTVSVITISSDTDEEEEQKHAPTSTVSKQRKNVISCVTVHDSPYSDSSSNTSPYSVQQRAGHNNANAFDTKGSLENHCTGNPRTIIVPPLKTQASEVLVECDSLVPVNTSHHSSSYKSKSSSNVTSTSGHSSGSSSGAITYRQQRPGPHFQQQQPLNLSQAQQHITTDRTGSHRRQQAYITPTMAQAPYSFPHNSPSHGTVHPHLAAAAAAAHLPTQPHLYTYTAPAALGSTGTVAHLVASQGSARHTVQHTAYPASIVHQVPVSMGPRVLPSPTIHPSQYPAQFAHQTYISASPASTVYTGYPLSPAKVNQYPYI", "experiment": "Selectivity interaction (KinomeScan (DiscoverX)) EUB0000695a HIPK2", "conditions": "at 100 nM"}, "[5]": {"test_system": "eIF-2-alpha kinase GCN2 (Homo sapiens), Q9P2K8 [S808G]", "conditions": "at 10 µM"}, "[6]": {"biological_target": "Ribosomal protein S6 kinase alpha-2 (Homo sapiens) (UniProt Q15349)", "sequence (Q15349 whole entry)": "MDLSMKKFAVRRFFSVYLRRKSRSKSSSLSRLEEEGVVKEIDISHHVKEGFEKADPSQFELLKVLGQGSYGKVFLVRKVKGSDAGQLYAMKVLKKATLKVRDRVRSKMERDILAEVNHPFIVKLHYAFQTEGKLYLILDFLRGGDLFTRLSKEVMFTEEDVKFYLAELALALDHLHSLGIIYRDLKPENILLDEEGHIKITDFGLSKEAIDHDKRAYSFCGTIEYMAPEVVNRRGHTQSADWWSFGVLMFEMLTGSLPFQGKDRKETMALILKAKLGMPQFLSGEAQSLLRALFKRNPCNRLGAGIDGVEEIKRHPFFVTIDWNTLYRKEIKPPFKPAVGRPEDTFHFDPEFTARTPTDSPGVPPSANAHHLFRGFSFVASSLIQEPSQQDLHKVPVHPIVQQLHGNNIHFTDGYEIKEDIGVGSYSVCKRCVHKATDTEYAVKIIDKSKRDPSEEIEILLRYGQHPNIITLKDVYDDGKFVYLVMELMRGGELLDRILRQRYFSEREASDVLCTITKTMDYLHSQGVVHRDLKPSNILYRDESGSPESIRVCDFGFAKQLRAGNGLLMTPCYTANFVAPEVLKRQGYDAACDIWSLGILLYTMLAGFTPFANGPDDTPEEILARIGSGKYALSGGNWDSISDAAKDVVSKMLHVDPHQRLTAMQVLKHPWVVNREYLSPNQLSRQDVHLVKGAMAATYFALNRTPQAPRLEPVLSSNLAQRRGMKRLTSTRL", "experiment": "Selectivity interaction (ProQinase) EUB0000171b RPS6KA2"}, "[7]": {"biological_target": "Serine/threonine-protein kinase PLK2 (Homo sapiens, UniProt Q9NYY3)", "sequence (Q9NYY3 whole entry, looked up)": "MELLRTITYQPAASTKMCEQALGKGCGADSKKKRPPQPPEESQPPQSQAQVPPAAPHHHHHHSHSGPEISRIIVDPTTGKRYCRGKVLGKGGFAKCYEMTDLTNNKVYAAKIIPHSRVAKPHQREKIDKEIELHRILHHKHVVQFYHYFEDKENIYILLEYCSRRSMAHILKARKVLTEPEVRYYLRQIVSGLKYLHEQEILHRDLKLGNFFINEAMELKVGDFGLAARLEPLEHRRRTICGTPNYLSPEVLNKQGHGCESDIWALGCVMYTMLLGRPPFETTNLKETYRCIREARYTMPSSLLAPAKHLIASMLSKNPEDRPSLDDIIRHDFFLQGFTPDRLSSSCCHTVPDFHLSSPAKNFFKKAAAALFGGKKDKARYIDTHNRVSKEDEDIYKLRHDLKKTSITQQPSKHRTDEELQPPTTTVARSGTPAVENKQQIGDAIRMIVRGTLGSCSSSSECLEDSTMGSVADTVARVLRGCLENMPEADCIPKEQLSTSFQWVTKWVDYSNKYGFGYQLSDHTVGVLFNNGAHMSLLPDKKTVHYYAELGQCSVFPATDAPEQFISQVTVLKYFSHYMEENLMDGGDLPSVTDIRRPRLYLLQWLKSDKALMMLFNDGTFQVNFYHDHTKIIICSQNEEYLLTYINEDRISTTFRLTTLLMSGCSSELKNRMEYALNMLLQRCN", "experiment": "Selectivity interaction (ProQinase) EUB0000171b PLK2"}, "[8]": {"biological_target": "Mitogen-activated protein kinase kinase kinase 9 (Homo sapiens) (UniProt P80192)", "experiment": "Selectivity interaction (KinomeScan (DiscoverX)) EUB0000655a MAP3K9", "conditions": "at 10 µM"}, "[9]": {"biological_target": "Serine/threonine-protein kinase VRK2 (Homo sapiens) (UniProt Q86Y07)", "sequence (Q86Y07 whole entry)": "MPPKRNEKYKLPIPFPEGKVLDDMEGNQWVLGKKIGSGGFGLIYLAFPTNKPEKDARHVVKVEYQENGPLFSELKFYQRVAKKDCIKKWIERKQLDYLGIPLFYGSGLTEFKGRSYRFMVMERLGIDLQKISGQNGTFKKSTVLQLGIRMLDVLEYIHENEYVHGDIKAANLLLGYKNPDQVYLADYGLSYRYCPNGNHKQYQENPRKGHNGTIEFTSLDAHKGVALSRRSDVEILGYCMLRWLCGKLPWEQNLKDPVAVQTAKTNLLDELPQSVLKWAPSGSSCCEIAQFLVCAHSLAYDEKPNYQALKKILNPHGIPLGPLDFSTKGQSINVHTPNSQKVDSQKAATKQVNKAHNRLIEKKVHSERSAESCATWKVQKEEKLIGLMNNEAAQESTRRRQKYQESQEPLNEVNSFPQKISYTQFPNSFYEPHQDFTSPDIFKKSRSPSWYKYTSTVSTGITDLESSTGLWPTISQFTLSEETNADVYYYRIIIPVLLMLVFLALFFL", "experiment": "Selectivity interaction (KinomeScan (DiscoverX)) EUB0000618a VRK2", "conditions": "at 10 µM"}, "[10]": {"biological_target": "Cyclin-dependent kinase 15 (Homo sapiens) (UniProt Q96Q40)", "experiment": "Selectivity interaction (KinomeScan (DiscoverX)) EUB0000618a CDK15", "conditions": "at 10 µM"}, "[11]": {"biological_target": "Mitogen-activated protein kinase kinase kinase kinase 1 (Homo sapiens) (UniProt Q92918)", "sequence (Q92918 whole entry, looked up)": "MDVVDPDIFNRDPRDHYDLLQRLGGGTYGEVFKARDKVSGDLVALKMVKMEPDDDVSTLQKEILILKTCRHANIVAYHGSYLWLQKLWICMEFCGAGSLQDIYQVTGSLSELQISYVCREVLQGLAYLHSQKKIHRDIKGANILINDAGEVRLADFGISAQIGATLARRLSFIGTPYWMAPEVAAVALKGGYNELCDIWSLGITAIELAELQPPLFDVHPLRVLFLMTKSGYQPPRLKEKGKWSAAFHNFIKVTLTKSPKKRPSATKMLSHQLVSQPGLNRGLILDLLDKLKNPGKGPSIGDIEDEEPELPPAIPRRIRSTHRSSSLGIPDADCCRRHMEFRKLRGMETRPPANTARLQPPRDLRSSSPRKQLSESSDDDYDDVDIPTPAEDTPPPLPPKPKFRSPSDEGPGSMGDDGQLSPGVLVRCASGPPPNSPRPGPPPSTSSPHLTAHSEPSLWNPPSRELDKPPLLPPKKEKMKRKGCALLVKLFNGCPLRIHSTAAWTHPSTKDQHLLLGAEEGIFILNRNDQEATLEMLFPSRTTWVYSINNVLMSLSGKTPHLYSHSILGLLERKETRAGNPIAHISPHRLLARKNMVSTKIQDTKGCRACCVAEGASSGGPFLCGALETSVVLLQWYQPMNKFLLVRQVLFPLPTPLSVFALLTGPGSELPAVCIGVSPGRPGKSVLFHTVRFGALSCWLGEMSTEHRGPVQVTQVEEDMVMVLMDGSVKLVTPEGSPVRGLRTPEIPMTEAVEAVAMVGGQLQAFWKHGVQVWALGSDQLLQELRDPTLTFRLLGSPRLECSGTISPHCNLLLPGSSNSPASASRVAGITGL", "experiment": "Selectivity interaction (Kinase panel (KiNativ target engagement assay in Jurkat cells)) EUB0001635a MAP4K1", "assay_type": "cell-based", "conditions": "Selectivity number of off-targets 0.0, Selectivity number of targets 233.0, Source Knowledge https://www.sciencedirect.com/science/article/pii/S2451945619300674?via%3Dihub, at 1 µM"}, "[12]": {"biological_target": "T2, Phosphatidylinositol 4,5-bisphosphate 3-kinase catalytic subunit delta isoform (Homo sapiens) (UniProt O00329)", "T2 sequence (whole entry)": "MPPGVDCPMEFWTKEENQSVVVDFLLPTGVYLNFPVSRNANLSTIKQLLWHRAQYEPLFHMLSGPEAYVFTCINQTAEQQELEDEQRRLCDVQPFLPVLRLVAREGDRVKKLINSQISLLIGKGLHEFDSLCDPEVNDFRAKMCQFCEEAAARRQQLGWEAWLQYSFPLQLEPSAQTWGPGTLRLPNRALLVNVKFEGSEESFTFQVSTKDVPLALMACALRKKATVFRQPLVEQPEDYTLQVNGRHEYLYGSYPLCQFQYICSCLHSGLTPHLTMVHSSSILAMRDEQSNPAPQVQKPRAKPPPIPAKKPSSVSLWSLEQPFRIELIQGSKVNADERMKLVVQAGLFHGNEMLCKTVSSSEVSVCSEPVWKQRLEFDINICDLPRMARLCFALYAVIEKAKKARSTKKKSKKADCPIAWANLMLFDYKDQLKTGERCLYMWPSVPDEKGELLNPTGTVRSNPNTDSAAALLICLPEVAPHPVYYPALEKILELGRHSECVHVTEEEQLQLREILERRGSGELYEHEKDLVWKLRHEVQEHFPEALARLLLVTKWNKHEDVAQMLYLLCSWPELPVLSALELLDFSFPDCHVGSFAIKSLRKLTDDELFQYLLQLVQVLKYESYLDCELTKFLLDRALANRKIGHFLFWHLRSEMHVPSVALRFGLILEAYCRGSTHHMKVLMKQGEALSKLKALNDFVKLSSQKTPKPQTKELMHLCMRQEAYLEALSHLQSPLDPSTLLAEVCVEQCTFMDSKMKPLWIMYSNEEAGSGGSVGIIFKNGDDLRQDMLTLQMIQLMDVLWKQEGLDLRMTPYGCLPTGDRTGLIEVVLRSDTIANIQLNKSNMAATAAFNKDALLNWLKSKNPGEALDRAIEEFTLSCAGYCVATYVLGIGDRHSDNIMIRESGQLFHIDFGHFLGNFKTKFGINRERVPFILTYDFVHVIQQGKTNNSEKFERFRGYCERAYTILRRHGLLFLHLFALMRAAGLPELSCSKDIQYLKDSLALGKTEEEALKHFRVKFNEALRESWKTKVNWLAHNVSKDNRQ", "experiment": "Selectivity interaction (Kinase panel (KiNativ target engagement assay in Jurkat cells)) EUB0001635a PIK3CD", "assay_type": "cell-based", "conditions": "Selectivity number of off-targets 0.0, Selectivity number of targets 233.0, Source Knowledge https://www.sciencedirect.com/science/article/pii/S2451945619300674?via%3Dihub, at 1 µM"}}, "data": [{"smiles": "CC[C@@H]1[C@H](F)C(=O)N[C@@H]1COc1nccc2cc(C(N)=O)c(OC)cc12", "note": "[ZIMLOVISERTIB]", "values": [{"measurement": "% of inhibition", "setting": "[1]", "value": 16.4, "unit": "%"}]}, {"smiles": "CCc1cccc(CC)c1NC(=O)c1nn(C)c2c1CCc1cnc(Nc3ccc(C(=O)NC4CCN(C)CC4)cc3OC(F)(F)F)nc1-2", "values": [{"measurement": "IC50", "setting": "[2]", "value": "> 10", "unit": "µM"}]}, {"smiles": "Cc1cc(F)c(C(=O)Nc2cccc(-c3nncn3C(C)C)n2)cc1-n1cnc(C2CC2)c1", "values": [{"measurement": "% of control", "setting": "[3]", "value": 100, "unit": "%"}, {"measurement": "% of control", "setting": "[4]", "value": 83, "unit": "%"}]}, {"smiles": "CCN(CC)CCCCNc1ncc2cc(-c3cc(OC)cc(OC)c3)c(NC(=O)NC(C)(C)C)nc2n1", "values": [{"measurement": "% of control", "setting": "[5]", "value": 100, "unit": "%"}]}, {"smiles": "C=CC(=O)Nc1cccc(C(=O)Nc2ccc(Nc3cc(-c4[nH]c(SC)nc4C)ccn3)cc2)c1", "values": [{"measurement": "% of control", "setting": "[6]; at 1 µM", "value": 88, "unit": "%"}, {"measurement": "% of control", "setting": "[6]; at 5 µM", "value": 69, "unit": "%"}, {"measurement": "% of control", "setting": "[7]; at 1 µM", "value": 86, "unit": "%"}, {"measurement": "% of control", "setting": "[7]; at 5 µM", "value": 81, "unit": "%"}]}, {"smiles": "CN(C)CCOc1ccc(-c2nc(-c3ccncc3)c(-c3ccc4c(c3)CC/C4=N\\O)[nH]2)cc1", "values": [{"measurement": "% of control", "setting": "[8]", "value": 100, "unit": "%"}]}, {"smiles": "O[C@H]1CC[C@H](Nc2ncc3nc(Nc4c(F)cc(F)cc4F)n([C@H]4CCOC4)c3n2)CC1", "values": [{"measurement": "% of control", "setting": "[9]", "value": 100, "unit": "%"}, {"measurement": "% of control", "setting": "[10]", "value": 100, "unit": "%"}]}, {"smiles": "C=CC(=O)Nc1ccc(C(=O)Nc2[nH]nc3c2CN(C(=O)N[C@H](CN(C)C)c2ccccc2)C3(C)C)cc1", "values": [{"measurement": "% of engagement", "setting": "[11]", "value": 4.4, "unit": "%"}, {"measurement": "% of engagement", "setting": "[12]", "value": -10.2, "unit": "%"}]}]}
